Data reported in US20060069132A1, “Azolecarboxamide herbicides” (priority 2004, published 2006).

Columns and labels:
[1] = system: lambsquarters; test: Test B pre-/postemergence herbicide test; format: in vivo, Chenopodium album; settings: for Lambsquarters plant response rating: postemergence, visual rating, scale 0 (no effect) to 100 (complete control)
Summary of the method: (§1)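 Visual rating, 0 (no effect) to 100 (complete control), versus untreated controls after 13–15 d in greenhouse. Pre- and postemergence applications (postemergence plants 2–18 cm, 1–4 leaves); flooded paddy arm at 2-leaf stage. Compounds in non-phytotoxic solvent plus surfactant.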

[2] = system: rice; test: Test B pre-/postemergence herbicide test; format: in vivo, Oryza sativa; settings: preemergence
Summary of the method: as §1

[3] = system: corn; test: Test B pre-/postemergence herbicide test; format: in vivo, Zea mays; settings: for Corn plant response rating: postemergence, visual rating, scale 0 (no effect) to 100 (complete control)
Summary of the method: as §1

[4] = system: Surinam grass; test: Test B pre-/postemergence herbicide test; format: in vivo, Urochloa decumbens; settings: for Surinam Grass plant response rating: postemergence, visual rating, scale 0 (no effect) to 100 (complete control)
Summary of the method: as §1

[5] = system: small flower umbrella sedge; test: Test B flooded paddy test; format: in vivo, Cyperus difformis; settings: 1000 g ai/ha, visual rating, scale 0 to 100 (0 no effect, 100 complete control), 13 to 15 days
Summary of the method: (§2)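 Greenhouse test; postemergence application to plants at 1–4 leaves (2–18 cm); paddy species at 2 leaves; evaluated visually vs controls at 13–15 days; scale 0–100 (100 = complete control).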

[6] = system: wild oat; test: Test B postemergence herbicide test; format: in vivo, Avena fatua; settings: postemergence, visual rating, scale 0 (no effect) to 100 (complete control)
Summary of the method: (§3)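 Scale 0–100: zero equals no visible effect, 100 complete control, judged by eye relative to controls. Timing: 13 to 15 days in greenhouse post-treatment. Growth stage at spraying: two leaves (paddy) or one to four leaves, 2–18 cm (postemergence).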

[7] = system: wheat; test: Test B postemergence herbicide test; format: in vivo, Triticum aestivum; parameters: key to Wheat plant response rating: 0 = no effect, 100 = complete control; settings: postemergence, visual rating, scale 0 (no effect) to 100 (complete control)
Summary of the method: as §3

[8] = system: morningglory; test: Test A pre-/postemergence herbicide test; format: in vivo, Ipomoea spp.
Summary of the method: (§4)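 Greenhouse injury scoring (0–100, complete control = 100) at approximately ten days follows simultaneous pre- and postemergence application. Soil received a directed spray after seeding; seedlings of 2–10 cm at the one- to two-leaf stage were sprayed to runoff.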

[9] = system: redroot pigweed; test: Test A pre-/postemergence herbicide test; format: in vivo, Amaranthus retroflexus
Summary of the method: as §4

[10] = system: barnyardgrass; test: Test B flooded paddy test; format: in vivo, Echinochloa crus-galli; settings: 1000 g ai/ha, visual rating, scale 0 to 100 (0 no effect, 100 complete control), 13 to 15 days
Summary of the method: as §2

[11] = system: large crabgrass; test: Test B pre-/postemergence herbicide test; format: in vivo, Digitaria sanguinalis; settings: for Crabgrass, Large plant response rating: postemergence, visual rating, scale 0 (no effect) to 100 (complete control)
Summary of the method: as §1

[12] = system: barnyardgrass; test: Test B pre-/postemergence herbicide test; format: in vivo, Echinochloa crus-galli; settings: for Barnyardgrass plant response rating: postemergence, visual rating, scale 0 (no effect) to 100 (complete control)
Summary of the method: (§5)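 Greenhouse pot assay with simultaneous preemergence (treated seed) and postemergence (2–18 cm seedlings) applications of surfactant-containing, non-phytotoxic solvent formulations. Response scored visually 13–15 days later on a 0–100 scale, 100 meaning complete control.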

[13] = system: ducksalad; test: Test B flooded paddy test; format: in vivo, Heteranthera limosa; settings: 1000 g ai/ha, visual rating, scale 0 to 100 (0 no effect, 100 complete control), 13 to 15 days
Summary of the method: as §2

[14] = system: morningglory; test: Test B pre-/postemergence herbicide test; format: in vivo, Ipomoea coccinea; settings: for Morningglory plant response rating: postemergence, visual rating, scale 0 (no effect) to 100 (complete control)
Summary of the method: as §5

[15] = system: giant foxtail; test: Test B pre-/postemergence herbicide test; format: in vivo, Setaria faberi; settings: for Foxtail, Giant plant response rating: postemergence, visual rating, scale 0 (no effect) to 100 (complete control)
Summary of the method: as §1

[16] = system: giant foxtail; test: Test A pre-/postemergence herbicide test; format: in vivo, Setaria faberi
Summary of the method: as §4

[17] = system: large crabgrass; test: Test A pre-/postemergence herbicide test; format: in vivo, Digitaria sanguinalis
Summary of the method: as §4

[18] = system: velvetleaf; test: Test A pre-/postemergence herbicide test; format: in vivo, Abutilon theophrasti
Summary of the method: as §4

[19] = system: pigweed; test: Test B pre-/postemergence herbicide test; format: in vivo, Amaranthus retroflexus; settings: for Pigweed plant response rating: postemergence, visual rating, scale 0 (no effect) to 100 (complete control)
Summary of the method: as §1

[20] = system: barnyardgrass; test: Test A pre-/postemergence herbicide test; format: in vivo, Echinochloa crus-galli
Summary of the method: as §4

[21] = system: velvetleaf; test: Test B pre-/postemergence herbicide test; format: in vivo, Abutilon theophrasti; settings: for Velvetleaf plant response rating: postemergence, visual rating, scale 0 (no effect) to 100 (complete control)
Summary of the method: as §1

[22] = system: cocklebur; test: Test B pre-/postemergence herbicide test; format: in vivo, Xanthium strumarium; settings: for Cocklebur plant response rating: postemergence, visual rating, scale 0 (no effect) to 100 (complete control)
Summary of the method: as §5

[23] = system: blackgrass; test: Test B postemergence herbicide test; format: in vivo, Alopecurus myosuroides; settings: postemergence, visual rating, scale 0 (no effect) to 100 (complete control)
Summary of the method: as §2

[24] = system: rice; test: Test B flooded paddy test; format: in vivo, Oryza sativa; settings: 1000 g ai/ha, visual rating, scale 0 to 100 (0 no effect, 100 complete control), 13 to 15 days
Summary of the method: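 Read-out: visual comparison with controls, scored 0 to 100, where 100 means complete control and 0 no effect. Formulated chemicals were applied postemergence to plants 2–18 cm tall (1- to 4-leaf), or to flooded-paddy plants at the 2-leaf stage, then held 13 to 15 days under glass.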

[25] = 125 g ai/ha, 0 = no effect, 100 = complete control, preemergence
[26] = 500 g ai/ha, visual rating 0-100, 0 no effect, 100 complete control, preemergence
[27] = Postemergence, 500 g ai/ha, 0 to 100 scale, 0 no effect, 100 complete control
[28] = Postemergence, 2000 g ai/ha, 0 to 100 scale, 0 no effect, 100 complete control
[29] = Preemergence, 2000 g ai/ha, visual rating, 0 to 100 scale (0 no effect, 100 complete control)
[30] = preemergence, 500 g ai/ha, visual injury, 0 to 100 scale (0 no effect, 100 complete control)

CCOC(=O)c1cccc(NC(=O)c2sc(C(C)(C)C)nc2CC)c1 [Compound 204]
Lambsquarters plant response rating (0 to 100 scale) [1, 25]: 0 | Plant response rating, Lambsquarters [1, 26]: 0 | Lambsquarters plant response rating ([1]; 125 g ai/ha): 30 | Lambsquarters plant response rating ([1]; 500 g ai/ha): 50 | Rice plant response rating (0 to 100 scale) ([2]; 125 g ai/ha, 0 = no effect, 100 = complete control): 0 | Plant response rating, Rice ([2]; 500 g ai/ha, visual rating 0-100, 0 no effect, 100 complete control): 0 | Corn plant response rating (0 to 100 scale) [3, 25]: 0 | Plant response rating, Corn [3, 26]: 0 | Corn plant response rating ([3]; 125 g ai/ha): 20 | Corn plant response rating ([3]; 500 g ai/ha): 20 | Surinam Grass plant response rating (0 to 100 scale) [4, 25]: 0 | Plant response rating, Surinam Grass [4, 26]: 0 | Surinam Grass plant response rating ([4]; 125 g ai/ha): 20 | Surinam Grass plant response rating ([4]; 500 g ai/ha): 50 | Sedge, Umbrella plant response rating [5]: 80 | Oat, Wild plant response rating ([6]; 125 g ai/ha): 10 | Oat, Wild plant response rating ([6]; 500 g ai/ha): 20 | Wheat plant response rating ([7]; 125 g ai/ha): 10 | Wheat plant response rating ([7]; 500 g ai/ha): 30 | Morningglory plant response rating [8, 27]: 20 | Plant response rating, Morningglory [8, 28]: 15 | Morningglory plant response rating [8, 29]: 25 | Morningglory plant response rating [8, 30]: 10 | Pigweed plant response rating [9, 27]: 50 | Plant response rating, Pigweed [9, 28]: 60 | Pigweed plant response rating [9, 29]: 10 | Pigweed plant response rating [9, 30]: 0 | Barnyardgrass plant response rating [10]: 20 | Crabgrass, Large plant response rating (0 to 100 scale) [11, 25]: 0 | Plant response rating, Crabgrass, Large [11, 26]: 0 | Crabgrass, Large plant response rating ([11]; 125 g ai/ha): 10 | Crabgrass, Large plant response rating ([11]; 500 g ai/ha): 10 | Barnyardgrass plant response rating (0 to 100 scale) [12, 25]: 0 | Plant response rating, Barnyardgrass [12, 26]: 0 | Barnyardgrass plant response rating ([12]; 125 g ai/ha): 10 | Barnyardgrass plant response rating ([12]; 500 g ai/ha): 10 | Ducksalad plant response rating [13]: 40 | Plant response rating, Morningglory [14, 26]: 10 | Morningglory plant response rating ([14]; 125 g ai/ha): 20 | Morningglory plant response rating ([14]; 500 g ai/ha): 40 | Foxtail, Giant plant response rating (0 to 100 scale) [15, 25]: 0 | Plant response rating, Foxtail, Giant [15, 26]: 0 | Foxtail, Giant plant response rating ([15]; 125 g ai/ha): 10 | Foxtail, Giant plant response rating ([15]; 500 g ai/ha): 20 | Foxtail, Giant plant response rating [16, 27]: 25 | Plant response rating, Foxtail, Giant [16, 28]: 25 | Foxtail, Giant plant response rating [16, 29]: 10 | Foxtail, Giant plant response rating [16, 30]: 0 | Crabgrass, Large plant response rating [17, 27]: 30 | Plant response rating, Crabgrass, Large [17, 28]: 30 | Crabgrass, Large plant response rating [17, 29]: 10 | Crabgrass, Large plant response rating [17, 30]: 0 | Velvetleaf plant response rating [18, 27]: 40 | Plant response rating, Velvetleaf [18, 28]: 60 | Velvetleaf plant response rating [18, 29]: 25 | Velvetleaf plant response rating [18, 30]: 5 | Pigweed plant response rating (0 to 100 scale) [19, 25]: 0 | Plant response rating, Pigweed [19, 26]: 10 | Pigweed plant response rating ([19]; 125 g ai/ha): 50 | Pigweed plant response rating ([19]; 500 g ai/ha): 70 | Barnyardgrass plant response rating [20, 27]: 25 | Plant response rating, Barnyardgrass [20, 28]: 30 | Barnyardgrass plant response rating [20, 29]: 5 | Barnyardgrass plant response rating [20, 30]: 0 | Velvetleaf plant response rating (0 to 100 scale) [21, 25]: 0 | Plant response rating, Velvetleaf [21, 26]: 0 | Velvetleaf plant response rating ([21]; 125 g ai/ha): 60 | Velvetleaf plant response rating ([21]; 500 g ai/ha): 70 | Cocklebur plant response rating (0 to 100 scale) [22, 25]: 0 | Plant response rating, Cocklebur [22, 26]: 0 | Cocklebur plant response rating ([22]; 125 g ai/ha): 90 | Cocklebur plant response rating ([22]; 500 g ai/ha): 90 | Blackgrass plant response rating ([23]; 125 g ai/ha): 20 | Blackgrass plant response rating ([23]; 500 g ai/ha): 20 | Rice plant response rating [24]: 30
